{"source": "patent US20220145406A1", "about": "“BIOMARKERS, AND USES IN TREATMENT OF VIRAL INFECTIONS, INFLAMMATIONS, OR CANCER” (ABIVAX, priority 2018, published 2022)", "system": "miR-124", "assay": "miR-124 (RT-q)PCR in PBMCs, CD4+ and CD8+ T cells, macrophages", "assay_type": "cell-based, human", "conditions": "PBMCs treated with antiretrovirals", "protocol": "Buffy coats from HIV-negative individuals were obtained from the local blood donation center in Centre de transfusion sanguine Montpellier. Human peripheral blood mononuclear cells (PBMCs) were isolated by Ficoll (Histopaque, Sigma) gradient centrifugation. CD4+ and CD8+ T cells were purified from PBMCs after Ficoll gradient centrifugation by Human CD4+ beads positive selection and CD8+ beads positive selection, respectively (Miltenyi). PBMCs, CD4+ and CD8+ T cells were grown at 37° C. and 5% CO2 to a density of 1.5×10^6 cells/ml in RPMI GlutaMAX medium (Life Technologies) supplemented with 10% fetal calf serum (FCS) (Thermo Fisher), 40 U/ml of IL2 (PeproTech) and 5 μg/mL of PHA (Roche) for 2 days. Three days later, cells were resuspended at 1.5×10^6 cells/ml in RPMI supplemented with 10% FCS and 40 U/ml IL2 and separated into two parts (infected and uninfected cells). Cells were infected with 80 ng of p24/106 cells of the YU-2 strain for 4 to 6 hours and then rinsed with PBS before medium renewal.\nBoth infected and uninfected cells were then centrifuged and resuspended to a density of 1.5×10^6 cells/ml in medium supplemented with diluted drug solubilized in DMSO (Sigma) to a final 0.05% DMSO concentration or antiretroviral compounds according to the manufacturer's instructions. Cells were treated for 6 days with a medium renewal at day 3. HIV p24 titration was performed by ELISA from cell culture supernatants with Innotest kit (Ingen) according to the manufacturer's instructions.\nTo generate monocyte-derived macrophages, monocytes were isolated using CD14+ positive microbeads (Miltenyi) and cultured in X-VIVO 10 medium (Lonza) supplemented with 10 mM HEPES, 1 mM sodium pyruvate, 1% non-essential amino acids, 10% FBS, 10 ng/ml GM-CSF and 100 ng/ml M-CSF for 7 days with medium renewal at day 3. After 7 days of differentiation, the cells were washed, plated in 6-well plates and incubated for 24 hours in medium without cytokine addition. Cells were treated for 6 days with a partial medium change at day 3.\nmiRNAs were extracted from PBMCs, CD4+ or CD8+ T cells using the NucleoSpin miRNeasy kit (Macherey-Nagel) according to the manufacturer's instructions. miRNA reverse transcription (RT) was performed using the miScript II RT kit (Qiagen). […] The relative levels of miR-124 were calculated using the 2^−ΔΔCt method.\nTotal RNA was extracted from macrophages using the Macherey-Nagel NucleoSpin miRNeasy kit. miRNA reverse transcription (RT) was performed on 2 μl of total RNA according to the Applied Biosystems TaqMan Advanced miRNA assays protocol for TaqMan qPCR. […] PCR runs were analyzed with Applied Biosystems ViiA 7 software.", "data": [{"compound": "Cc1cn([C@H]2C[C@H](N=[N+]=[N-])[C@@H](CO)O2)c(=O)[nH]c1=O", "note": "[AZT]", "values": [{"measurement": "miR-124 expression compared to untreated cells (DMSO)", "value": "did not upregulate"}]}, {"compound": "CC(C)CN(C[C@@H](O)[C@H](Cc1ccccc1)NC(=O)O[C@H]1CO[C@H]2OCC[C@H]21)S(=O)(=O)c1ccc(N)cc1", "note": "[darunavir]", "values": [{"measurement": "miR-124 expression compared to untreated cells (DMSO)", "value": "did not upregulate"}]}, {"compound": "maraviroc", "values": [{"measurement": "miR-124 expression compared to untreated cells (DMSO)", "value": "did not upregulate"}]}, {"compound": "O=C1Nc2ccc(Cl)cc2[C@@](C#CC2CC2)(C(F)(F)F)O1", "note": "[efavirenz]", "values": [{"measurement": "miR-124 expression compared to untreated cells (DMSO)", "value": "did not upregulate"}]}]}
